Laboratory results as given in ChEMBL document CHEMBL4004877, “Synthesis and biological evaluation of chalcone, dihydrochalcone, and 1,3-diarylpropane analogs as anti-inflammatory agents” (Bioorg Med Chem Lett, 2017).
≈ marks a conversion by molar mass, not a printed value.

Experiments:
[1] = tested on: RAW264.7; assay: Antiinflammatory activity in mouse RAW264.7 cells assessed as inhibition of LPS induced iNOS-dependent nitric oxide production at 1.25 ug/ml after 24 hrs by Griess assay relative to control; format: functional; conditions: RAW264.7, 24 h
[2] = tested on: RAW264.7; assay: Antiinflammatory activity in mouse RAW264.7 cells assessed as inhibition of LPS induced iNOS-dependent nitric oxide production at 2.5 ug/ml after 24 hrs by Griess assay relative to control; format: functional; conditions: RAW264.7, 24 h
[3] = tested on: RAW264.7; assay: Antiinflammatory activity in mouse RAW264.7 cells assessed as inhibition of LPS induced iNOS-dependent nitric oxide production at 5 ug/ml after 24 hrs by Griess assay relative to control; format: functional; conditions: RAW264.7, 24 h
[4] = tested on: RAW264.7; assay: Antiinflammatory activity in mouse RAW264.7 cells assessed as inhibition of LPS induced iNOS-dependent nitric oxide production at 10 ug/ml after 24 hrs by Griess assay relative to control; format: functional; conditions: RAW264.7, 24 h
[5] = tested on: RAW264.7; assay: Antiinflammatory activity in mouse RAW264.7 cells assessed as inhibition of LPS induced iNOS-dependent nitric oxide production after 24 hrs by Griess assay; format: functional, cell-based; conditions: RAW264.7, 24 h
[6] = Cytotoxicity against LPS-stimulated mouse RAW264.7 cells assessed as cell viability at 1.25 ug/ml after 24 hrs by MTT assay relative to control; format: cell-based; conditions: LPS-stimulated RAW264.7 cells, read-out: Activity
[7] = Cytotoxicity against LPS-stimulated mouse RAW264.7 cells assessed as cell viability at 2.5 ug/ml after 24 hrs by MTT assay relative to control; format: cell-based; conditions: LPS-stimulated RAW264.7 cells, read-out: Activity
[8] = Cytotoxicity against LPS-stimulated mouse RAW264.7 cells assessed as cell viability at 5 ug/ml after 24 hrs by MTT assay relative to control; format: cell-based; conditions: LPS-stimulated RAW264.7 cells, read-out: Activity
[9] = Cytotoxicity against LPS-stimulated mouse RAW264.7 cells assessed as cell viability at 10 ug/ml after 24 hrs by MTT assay relative to control; format: cell-based; conditions: LPS-stimulated RAW264.7 cells, read-out: Activity

| SMILES | inhibition at 1.25 µg/mL [1] | inhibition at 2.5 µg/mL [2] | inhibition at 5 µg/mL [3] | inhibition at 10 µg/mL [4] | IC50 [5] | viability at 24 h, 1.25 ug/ml [6] | viability at 24 h, 2.5 ug/ml [7] | viability at 24 h, 5 ug/ml [8] | viability at 24 h, 10 ug/ml [9] |
| --- | --- | --- | --- | --- | --- | --- | --- | --- | --- |
| COc1ccc(/C=C/C(=O)c2ccc(OC)cc2O)cc1 | 9.4% | 3.5% | 54% | 78.2% | 4.73 µg/mL (≈ 16.6 µM) | 93.3% | 72.3% | 75.2% | 72.6% |
| COc1ccc(CCCc2ccc(OC)c(OC)c2)cc1 | 12.9% | 15.1% | 28.6% | 55.4% | 8.69 µg/mL (≈ 30.3 µM) | 100% | 100% | 96.9% | 95.1% |
| COc1cc(/C=C/C(=O)c2cccc(O)c2)ccc1O | 3% | 3.2% | 3.2% | 12.2% | > 10 µg/mL | 96.9% | 94% | 63.8% | 62.6% |
| COc1ccc(CCCc2cccc(O)c2)c(OC)c1 | 16.2% | 18% | 24.6% | 78.8% | 6.92 µg/mL (≈ 25.4 µM) | 98.5% | 97% | 95.9% | 67.9% |
| Oc1ccc(CCCc2ccc3c(c2)OCO3)cc1 | 33% | 37.7% | 48.9% | 69.4% | 5.18 µg/mL (≈ 20.2 µM) | 99.2% | 95.7% | 94.5% | 92.6% |
| COc1ccc(C(=O)/C=C/c2ccc(OC)c(OC)c2)c(O)c1 | 9.1% | 3% | 49.6% | 77.3% | 5.05 µg/mL (≈ 16.1 µM) | 99.7% | 92.6% | 73.9% | 70% |
| COc1ccc(CCCc2ccc3c(c2)OCO3)c(OC)c1 | 16.9% | 20.1% | 28% | 44.6% | > 10 µg/mL | 99.1% | 97.7% | 97.2% | 94.7% |
| COc1ccc(CCCc2ccc(OC)c(OC)c2)cc1O | 32.4% | 36.3% | 57.4% | 83.6% | 3.92 µg/mL (≈ 13 µM) | 98% | 95.5% | 86.2% | 51.9% |
| COc1cc(CCCc2cccc(OC)c2OC)ccc1O | 43.3% | 49.5% | 60.7% | 89.4% | 2.57 µg/mL (≈ 8.5 µM) | 99.6% | 97.8% | 97% | 68.9% |
| COc1ccc(/C=C/C(=O)c2ccc(O)c(OC)c2)cc1 | 7.7% | 3.1% | 51.7% | 53.9% | 4.88 µg/mL (≈ 17.2 µM) | 96.2% | 96% | 82.9% | 62.3% |
| COc1ccc(CCCc2cccc(OC)c2OC)c(O)c1 | 21.5% | 30.3% | 30.7% | 54.4% | 8.79 µg/mL (≈ 29.1 µM) | 99.1% | 99% | 95.2% | 63% |
| COc1ccc(C(=O)CCc2ccc(OC)c(OC)c2OC)c(O)c1 | 0.9% | 2.8% | 7.5% | 10.3% | > 10 µg/mL | 101% | 94.4% | 94.8% | 94% |
